Like-named read-outs stand apart in the source and are kept apart here.
Columns and labels:
Assay type in all cases: cell-based
[1] = tested on: PC3 cells; test: cells; details: Homo sapiens
Description: (§1) Studies were carried out on three prostate cancer cell lines: LNCaP, PC3, and DU145. […] There was not a significant difference in cytotoxicity of emetine between days 3 and 7. […] This increase is most likely due to the release of emetine from the dithiocarbamate salt over the time period. Further drug release studies at pH 5 confirmed about 45% release of emetine from the dithiocarbamate salt after 3-day incubation at this acidic pH maintained at 37° C., whereas release of emetine from the dithiocarbamate salt was not observed at physiological pH (e.g., about 7.4).
(§2) Various compounds prepared according to Examples 1-5 were studied in LNCaP, PC3, and DU145 cells.
(§3) Various compounds prepared according to Example 6 were studied in DU145 and PC3 cells. The IC50 was determined at 3, 5, and 7 days.

[2] = tested on: DU145 cells; test: cells; details: Homo sapiens
Description: as §1, §2, §3

[3] = tested on: LNCaP cells; test: Cytotoxicity in LNCaP prostate cancer cell line; details: Homo sapiens, 168 h, read-out: IC50 after 7 days
Description: as §1, §2

[4] = PC-3, 168 h, read-out: IC50 after 7 days
[5] = DU-145, 168 h, read-out: IC50 after 7 days
[6] = DU-145, 72 h, read-out: IC50 in DU145
[7] = DU-145, 120 h, read-out: IC50 in DU145
[8] = DU-145, 168 h, read-out: IC50 in DU145
[9] = PC-3, 72 h, read-out: IC50 in PC3
[10] = PC-3, 120 h, read-out: IC50 in PC3
[11] = PC-3, 168 h, read-out: IC50 in PC3

SMILES | IC50 [1, 4] [nM] | IC50 [2, 5] [nM] | IC50 [3] [nM] | further results
CCC1CN2CCc3cc(OC)c(OC)cc3C2CC1CC1c2cc(OC)c(OC)cc2CCN1C(=S)Nc1ccccc1 (stereo not drawn) [Compound 11a] | 484 ± 24.7 | – | – | –
CCC1CN2CCc3cc(OC)c(OC)cc3C2CC1CC1c2cc(OC)c(OC)cc2CCN1C(=S)Nc1ccc(OC)cc1 (stereo not drawn) [Compound 11b] | – | 467 ± 25 | – | –
CCC1CN2CCc3cc(OC)c(OC)cc3C2CC1CC1c2cc(OC)c(OC)cc2CCN1C(=S)Nc1ccc(Cl)cc1 (stereo not drawn) [Compound 11c] | 505 ± 15.9 | – | – | –
CCC1CN2CCc3cc(OC)c(OC)cc3C2CC1CC1c2cc(OC)c(OC)cc2CCN1C(=S)Nc1ccc(Br)cc1 (stereo not drawn) [Compound 11d] | 443 ± 38.3 | – | 339 ± 32.7 | –
CCC1CN2CCc3cc(OC)c(OC)cc3C2CC1CC1c2cc(OC)c(OC)cc2CCN1C(=S)NCc1ccccc1 (stereo not drawn) [Compound 11e] | 6920 ± 71.1 | 1540 ± 254 | 2060 ± 438 | –
CCC1CN2CCc3cc(OC)c(OC)cc3C2CC1CC1c2cc(OC)c(OC)cc2CCN1C(=S)NCc1ccc(OC)cc1 (stereo not drawn) [Compound 11f] | 5000 ± 307 | – | – | –
CCC1CN2CCc3cc(OC)c(OC)cc3C2CC1CC1c2cc(OC)c(OC)cc2CCN1C(=S)NCc1ccc(Cl)cc1 (stereo not drawn) [Compound 11g] | 2860 ± 66.2 | 2320 ± 91 | 1590 ± 151 | –
CCC1CN2CCc3cc(OC)c(OC)cc3C2CC1CC1c2cc(OC)c(OC)cc2CCN1C(=S)NCc1ccccc1Cl (stereo not drawn) [Compound 11h] | – | 2370 ± 112 | – | –
CCC1CN2CCc3cc(OC)c(OC)cc3C2CC1CC1c2cc(OC)c(OC)cc2CCN1C(=S)NCc1ccc(F)cc1 (stereo not drawn) [Compound 11i] | 5270 ± 372 | – | – | –
CCC1CN2CCc3cc(OC)c(OC)cc3C2CC1CC1c2cc(OC)c(OC)cc2CCN1C(=S)NCc1ccc(C)cc1 (stereo not drawn) [Compound 11j] | – | 2630 ± 106 | – | –
CCCCNC(=S)N1CCc2cc(OC)c(OC)cc2C1CC1CC2c3cc(OC)c(OC)cc3CCN2CC1CC (stereo not drawn) [Compound 11k] | 6920 ± 170 | 6587 ± 34.8 | 1310 ± 166 | –
CCCCCCNC(=S)N1CCc2cc(OC)c(OC)cc2C1CC1CC2c3cc(OC)c(OC)cc3CCN2CC1CC (stereo not drawn) [Compound 11l] | 2450 ± 323 | – | 1700 ± 144 | –
CCCCCCCCNC(=S)N1CCc2cc(OC)c(OC)cc2C1CC1CC2c3cc(OC)c(OC)cc3CCN2CC1CC (stereo not drawn) [Compound 11m] | 1420 ± 336 | – | 1010 ± 249 | –
CCC1CN2CCc3cc(OC)c(OC)cc3C2CC1CC1c2cc(OC)c(OC)cc2CCN1C(=S)NCCOC (stereo not drawn) [Compound 11n] | > 10000 | – | – | –
CCC1CN2CCc3cc(OC)c(OC)cc3C2CC1CC1c2cc(OC)c(OC)cc2CCN1C(=O)NCc1ccccc1 (stereo not drawn) [Compound 13e] | – | – | 2120 ± 576 | –
CCC1CN2CCc3cc(OC)c(OC)cc3C2CC1CC1c2cc(OC)c(OC)cc2CCN1C(=O)/C=C/C(=O)O (stereo not drawn) [Compound 15a2] | – | – | – | IC50 [2, 6]: 7960 ± 312 nM; IC50 [2, 7]: 5730 ± 182 nM; IC50 [2, 8]: 4230 ± 418 nM; IC50 [1, 9]: 8390 ± 208 nM; IC50 [1, 10]: 7058 ± 15.7 nM; IC50 [1, 11]: 7710 ± 151 nM
CCC1CN2CCc3cc(OC)c(OC)cc3C2CC1CC1c2cc(OC)c(OC)cc2CCN1C(=O)/C(Cl)=C(\Cl)C(=O)O (stereo not drawn) [Compound 15b2] | – | – | – | IC50 [2, 6]: 6530 ± 85.2 nM; IC50 [2, 7]: 5990 ± 238 nM; IC50 [2, 8]: 5218 ± 45.9 nM; IC50 [1, 9]: 7580 ± 135 nM; IC50 [1, 10]: 5990 ± 238 nM; IC50 [1, 11]: 7510 ± 168 nM
CCC1CN2CCc3cc(OC)c(OC)cc3C2CC1CC1c2cc(OC)c(OC)cc2CCN1C(=O)/C=C(/CC(=O)O)C(=O)O (stereo not drawn) [Compound 15d2] | – | – | – | IC50 [2, 6]: 2580 ± 190 nM; IC50 [2, 7]: 2010 ± 73.4 nM; IC50 [2, 8]: 1790 ± 134 nM; IC50 [1, 9]: 3060 ± 110 nM; IC50 [1, 10]: 2430 ± 118 nM; IC50 [1, 11]: 2890 ± 123 nM
CCC1CN2CCc3cc(OC)c(OC)cc3C2CC1CC1c2cc(OC)c(OC)cc2CCN1C(=O)CCC(=O)O (stereo not drawn) [Compound 15e2] | – | – | – | IC50 [2, 6]: 733 ± 22 nM; IC50 [2, 7]: 641 ± 54.3 nM; IC50 [2, 8]: 802 ± 19.8 nM; IC50 [1, 9]: 2500 ± 72.2 nM; IC50 [1, 10]: 1820 ± 161 nM; IC50 [1, 11]: 2150 ± 131 nM

From patent US11780833B2, “Emetine derivatives, prodrugs containing same, and methods of treating conditions using same” (HOWARD UNIVERSITY, priority 2011, dated 2023)
